Laboratory results as given in ChEMBL document CHEMBL1201862, “PubChem BioAssay data set” (2004).
Calls of active or inactive are those of the source.

Experiments:
[1] = Luminescence Cell-Based Dose Confirmation HTS to Identify Activators of 5'UTR Stem-Loop Driven Alpha-Synuclein mRNA Translation in H4 Neuroglioblastoma Cells. [Related pubchem assays: 1829 (Project Summary), 1814 (Primary HTS)]; format: functional
[2] = Luminescence Cell-Based Dose Response HTS to Identify Activators of Luciferase Translation or Activity in H4 […] Cells. [Related pubchem assays: 1829 (Project Summary), 1814 (Primary HTS)]; format: functional
[3] = inhibitors of firefly luciferase expression or activity, dose response, H4 neuroglioma cells, luminescence (AID 1990); format: functional, cell-based
[4] = Luminescence Cell-Based Dose Response HTS to Identify Inhibitors of 5'UTR Stem-Loop Driven Prion Protein mRNA Translation in H4 Neuroglioblastoma Cells. [Related pubchem assays: 1827 (Project Summary), 1813 (Primary HTS)]; format: functional
[5] = inhibitors of SNCA 5'UTR-driven reporter translation, confirmation, H4 neuroglioma cells, luminescence (AID 1988); format: functional, cell-based
[6] = biological target: T1, Replicative DNA helicase DnaB (Mycobacterium tuberculosis, UniProt P9WMR3); assay: DnaB intein splicing inhibitors, dose response, biochemical, cell-free fluorescence (AID 449749); format: functional
T1 sequence (P9WMR3 whole entry): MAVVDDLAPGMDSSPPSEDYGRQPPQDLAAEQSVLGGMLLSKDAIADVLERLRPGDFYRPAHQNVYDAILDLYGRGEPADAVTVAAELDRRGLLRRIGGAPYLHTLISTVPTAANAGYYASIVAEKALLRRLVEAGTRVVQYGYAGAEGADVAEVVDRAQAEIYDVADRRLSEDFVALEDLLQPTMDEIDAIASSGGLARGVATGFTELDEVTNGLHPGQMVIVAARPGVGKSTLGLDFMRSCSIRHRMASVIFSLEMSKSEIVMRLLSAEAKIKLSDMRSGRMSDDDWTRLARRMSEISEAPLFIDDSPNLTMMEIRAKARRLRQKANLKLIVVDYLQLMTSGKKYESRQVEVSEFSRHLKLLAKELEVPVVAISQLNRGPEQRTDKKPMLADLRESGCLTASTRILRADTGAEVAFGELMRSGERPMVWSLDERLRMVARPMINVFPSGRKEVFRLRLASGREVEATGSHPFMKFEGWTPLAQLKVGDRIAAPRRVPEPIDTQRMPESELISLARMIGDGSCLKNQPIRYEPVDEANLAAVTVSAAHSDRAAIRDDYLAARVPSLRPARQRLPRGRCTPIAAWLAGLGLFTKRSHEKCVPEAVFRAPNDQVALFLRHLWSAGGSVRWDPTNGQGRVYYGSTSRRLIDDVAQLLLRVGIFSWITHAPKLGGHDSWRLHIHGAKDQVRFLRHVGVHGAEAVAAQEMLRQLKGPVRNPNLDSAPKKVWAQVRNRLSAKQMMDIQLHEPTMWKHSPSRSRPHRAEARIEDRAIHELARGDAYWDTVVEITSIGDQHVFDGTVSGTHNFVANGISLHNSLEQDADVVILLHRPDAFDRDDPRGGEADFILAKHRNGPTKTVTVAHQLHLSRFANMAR

Protein RecA = biological target: T2, Protein RecA (Mycobacterium tuberculosis, UniProt P9WHJ3); assay: Fluorescence Cell-Free Homogeneous Dose Retest to Identify Inhibitors of RecA-Intein Splicing Activity. [Related pubchem assays (depositor defined):AID2097, AID2223, AID489010, AID492950]; format: functional
T2 sequence (P9WHJ3 whole entry): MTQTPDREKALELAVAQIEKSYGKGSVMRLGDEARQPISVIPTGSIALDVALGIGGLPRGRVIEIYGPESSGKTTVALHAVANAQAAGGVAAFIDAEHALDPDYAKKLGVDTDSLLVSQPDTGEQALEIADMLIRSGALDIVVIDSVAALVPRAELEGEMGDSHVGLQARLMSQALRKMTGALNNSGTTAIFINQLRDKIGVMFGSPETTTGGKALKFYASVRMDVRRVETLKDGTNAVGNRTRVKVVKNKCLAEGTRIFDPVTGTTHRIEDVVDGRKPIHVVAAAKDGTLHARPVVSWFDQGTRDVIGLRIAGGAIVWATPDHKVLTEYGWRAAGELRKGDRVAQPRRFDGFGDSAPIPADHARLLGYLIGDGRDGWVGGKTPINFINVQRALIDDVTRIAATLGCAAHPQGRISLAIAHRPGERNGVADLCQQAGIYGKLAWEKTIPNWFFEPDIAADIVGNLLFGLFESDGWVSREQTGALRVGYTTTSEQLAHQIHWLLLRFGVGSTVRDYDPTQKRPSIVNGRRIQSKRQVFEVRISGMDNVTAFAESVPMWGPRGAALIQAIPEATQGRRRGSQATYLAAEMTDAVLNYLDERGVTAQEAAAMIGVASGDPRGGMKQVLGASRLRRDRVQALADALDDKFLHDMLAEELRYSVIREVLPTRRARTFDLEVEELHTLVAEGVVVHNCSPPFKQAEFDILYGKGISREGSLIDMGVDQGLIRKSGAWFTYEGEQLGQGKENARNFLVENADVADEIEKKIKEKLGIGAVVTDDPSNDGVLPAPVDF

Cytochrome P450 2C9 = Cytochrome P450 2C9 (Homo sapiens, UniProt P11712)
Cytochrome P450 2C9, sequence (P11712 whole entry): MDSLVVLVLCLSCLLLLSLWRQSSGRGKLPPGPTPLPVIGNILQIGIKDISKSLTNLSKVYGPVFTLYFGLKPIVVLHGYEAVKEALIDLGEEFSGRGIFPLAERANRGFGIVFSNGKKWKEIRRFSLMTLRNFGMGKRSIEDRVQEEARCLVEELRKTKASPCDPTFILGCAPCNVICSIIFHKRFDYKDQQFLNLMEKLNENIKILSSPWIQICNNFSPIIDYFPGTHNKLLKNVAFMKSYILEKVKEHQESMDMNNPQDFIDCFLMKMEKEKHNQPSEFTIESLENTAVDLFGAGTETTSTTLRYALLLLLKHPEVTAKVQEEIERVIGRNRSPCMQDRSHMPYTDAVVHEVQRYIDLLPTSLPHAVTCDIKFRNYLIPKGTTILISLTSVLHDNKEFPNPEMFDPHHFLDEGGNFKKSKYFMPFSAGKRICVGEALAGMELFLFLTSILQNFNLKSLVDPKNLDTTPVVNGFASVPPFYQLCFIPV

H4 = assay: Luminescence Cell-Based Dose Response HTS to Identify Activators of 5'UTR Stem-Loop Driven Prion Protein mRNA Translation in H4 Neuroglioblastoma Cells. [Related pubchem assays: 1829 (Project Summary), 1814 (Primary HTS)]; format: functional; settings: Homo sapiens
Cytochrome P450 3A4 = Cytochrome P450 3A4 (Homo sapiens, UniProt P08684);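 also: CYP3A4 tested as one member of a cytochrome P450 panel screen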
Cytochrome P450 3A4, sequence (P08684 whole entry): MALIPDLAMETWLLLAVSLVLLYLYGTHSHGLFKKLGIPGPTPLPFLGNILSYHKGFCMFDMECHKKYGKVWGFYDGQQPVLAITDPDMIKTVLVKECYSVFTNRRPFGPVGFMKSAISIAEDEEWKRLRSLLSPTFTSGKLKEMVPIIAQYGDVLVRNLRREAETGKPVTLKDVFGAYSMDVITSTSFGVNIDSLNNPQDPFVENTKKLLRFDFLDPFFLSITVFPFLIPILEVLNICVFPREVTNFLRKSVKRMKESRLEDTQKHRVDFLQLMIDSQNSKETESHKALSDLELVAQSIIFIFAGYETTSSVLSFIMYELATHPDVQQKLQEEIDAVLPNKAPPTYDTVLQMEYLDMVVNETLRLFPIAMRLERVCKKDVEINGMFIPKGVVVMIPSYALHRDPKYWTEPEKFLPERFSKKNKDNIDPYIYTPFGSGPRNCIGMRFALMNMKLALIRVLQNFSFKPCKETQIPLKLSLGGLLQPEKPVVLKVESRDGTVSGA

Cytochrome P450 2C19 = Cytochrome P450 2C19 (Homo sapiens, UniProt P33261); assay: Cytochrome panel assay with activity outcomes. Panel member name: p450-cyp2c19 Compounds with AC50 equal or less than 10 uM are considered active; format: functional; settings: read-out: AC50
Cytochrome P450 2C19, sequence (P33261 whole entry): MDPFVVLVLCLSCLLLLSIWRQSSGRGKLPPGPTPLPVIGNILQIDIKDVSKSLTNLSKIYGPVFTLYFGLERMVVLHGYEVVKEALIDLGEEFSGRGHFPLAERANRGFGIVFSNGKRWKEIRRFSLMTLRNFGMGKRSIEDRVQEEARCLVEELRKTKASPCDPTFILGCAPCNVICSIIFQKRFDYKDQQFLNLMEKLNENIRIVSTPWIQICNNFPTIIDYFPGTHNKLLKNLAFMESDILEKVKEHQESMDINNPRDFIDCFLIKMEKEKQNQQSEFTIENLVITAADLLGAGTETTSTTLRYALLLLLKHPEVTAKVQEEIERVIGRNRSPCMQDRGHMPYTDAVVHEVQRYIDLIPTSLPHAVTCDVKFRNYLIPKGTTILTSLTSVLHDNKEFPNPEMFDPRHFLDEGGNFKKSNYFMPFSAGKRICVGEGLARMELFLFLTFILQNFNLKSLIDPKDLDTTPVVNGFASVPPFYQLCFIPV

[7] = biological target: T3, Corticotropin-releasing factor receptor 2/Corticotropin-releasing factor-binding protein (Homo sapiens, UniProt P24387+Q13324); assay: activators of CRF receptor 2 with binding protein – uHTS hits, confirmation (AID 602473); format: functional; settings: read-out: EC50_Mean
T3 sequence (Q13324 whole entry): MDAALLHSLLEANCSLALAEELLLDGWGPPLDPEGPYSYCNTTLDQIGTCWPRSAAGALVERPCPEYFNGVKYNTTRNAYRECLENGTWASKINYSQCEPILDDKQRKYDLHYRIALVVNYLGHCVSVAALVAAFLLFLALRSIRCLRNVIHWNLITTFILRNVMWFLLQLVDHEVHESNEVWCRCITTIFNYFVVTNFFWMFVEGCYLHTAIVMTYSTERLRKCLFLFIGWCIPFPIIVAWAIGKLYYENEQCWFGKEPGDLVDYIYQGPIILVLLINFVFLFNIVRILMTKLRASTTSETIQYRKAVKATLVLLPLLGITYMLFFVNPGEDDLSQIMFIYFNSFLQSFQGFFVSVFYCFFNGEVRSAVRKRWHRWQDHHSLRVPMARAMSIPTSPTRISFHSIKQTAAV
T3 sequence (P24387 whole entry): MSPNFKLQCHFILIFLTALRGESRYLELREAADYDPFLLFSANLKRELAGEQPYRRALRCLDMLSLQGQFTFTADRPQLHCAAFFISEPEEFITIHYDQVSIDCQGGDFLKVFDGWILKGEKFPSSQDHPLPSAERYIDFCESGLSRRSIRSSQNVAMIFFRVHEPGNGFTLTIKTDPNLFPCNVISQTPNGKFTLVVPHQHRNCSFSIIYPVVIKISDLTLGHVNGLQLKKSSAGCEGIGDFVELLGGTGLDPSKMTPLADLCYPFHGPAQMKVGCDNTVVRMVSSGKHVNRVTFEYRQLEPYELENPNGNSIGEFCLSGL

SMILES | EC50 [1] | EC50 [2] | EC50 [3] | EC50 [4] | EC50 [5] | AC50 (Cytochrome P450 2C9) | other results
COC(=O)c1cc(CSc2nc3ccccc3[nH]2)oc1C | 12.8 µM (active) | 31.9 µM (active) |  |  |  |  | 
O=C(c1cnn2c(C(F)F)cc(-c3ccccc3)nc12)N1CCCc2ccccc21 |  |  | 19.2 µM (active) | 23.8 µM (active) | 26.3 µM (active) |  | 
Cc1cc(Oc2ccc3ccccc3c2)nc(SCC(=O)c2ccccc2)n1 |  |  | > 120 µM (not active) | 15 µM (active) | 26.9 µM (active) |  | 
CC1CCc2nc(NC(=O)C3COc4ccccc4O3)sc2C1 (configuration not stated) |  |  | 5.93 µM (inconclusive) | 10 µM (active) | 5.45 µM (active) |  | 
O=c1c([N+](=O)[O-])c(N2CCOCC2)c2ccccc2n1Cc1ccccc1 |  |  | 19 µM (active) | > 120 µM (not active) | > 120 µM (not active) |  | 
CS(=O)(=O)NNC(=O)CN1C(=O)C2C3C=CC(C3)C2C1=O (configuration not stated) |  |  | > 120 µM (not active) | 22.1 µM (active) | > 120 µM (not active) |  | 
O=C(Nc1cccc(OC(=O)c2ccco2)c1)c1ccco1 |  |  |  |  |  | 25.1 µM (inconclusive) | AC50 [6]: 21.4 µM (active); EC50 (Protein RecA): 10.1 µM (active)
CCOc1ccccc1-n1c(CN2CCN(C(=O)c3ccco3)CC2)nc2ccccc2c1=O |  |  | 8.25 µM (active) | 8.43 µM (active) | 7.97 µM (active) |  | 
COc1cc(N=C(S)N2CCOCC2)c(OC)cc1Cl | > 120 µM (not active) | > 120 µM (not active) |  |  |  |  | EC50 (H4): > 120 µM (not active)
COc1cc(-c2onc3ccc(Br)cc23)cc(OC)c1OC |  |  | > 120 µM (not active) | 10.8 µM (active) | 4.29 µM (active) |  | 
O=C(c1ccccc1)N1C(=O)C(c2ccccc2)Oc2ccccc21 (configuration not stated) |  |  | > 120 µM (not active) | > 120 µM (not active) | > 120 µM (not active) |  | 
C=CCOc1ccc(C(=O)C2=C(O)C(=O)N(CCCn3ccnc3)C2c2cccs2)cc1 (configuration not stated) | > 120 µM (not active) | 12 µM (active) |  |  |  |  | EC50 (H4): > 120 µM (not active)
CC1CCCC(/C=N/c2ccc3c(c2)OCO3)=C1O (configuration not stated) | 13.7 µM (active) | 16.1 µM (active) |  |  |  |  | EC50 (H4): 39.1 µM (active)
CCOC(=O)N1CCC(NC(=O)c2ccc3c(c2)sc2nc(-c4cccc(OC)c4)cn23)CC1 | 28.6 µM (active) | 12.6 µM (active) |  |  |  |  | EC50 (H4): 7.29 µM (active)
COc1ccc(CCN2C(=O)CS/C2=N\NC(=O)c2ccc(C(C)(C)C)cc2)cc1OC |  |  | 22.4 µM (active) | 21.1 µM (active) | > 120 µM (not active) |  | 
Cc1nn(C)c(C)c1CNC(=O)c1cnn2c1NC(c1ccccc1)CC2C(F)(F)F (configuration not stated) |  |  |  |  |  | 15.8 µM (inconclusive) | 
COC(=O)c1cnn(-c2nc(-c3ccccc3)cs2)c1N | 0.585 µM (active) | 72.2 µM (active) |  |  |  |  | EC50 (H4): > 120 µM (not active)
CC(C)CCn1c(N)c(S(=O)(=O)c2cccs2)c2nc3ccccc3nc21 |  |  | 69 µM (active) | > 120 µM (not active) | > 120 µM (not active) |  | 
CC(C)[C@@H]1NC(=O)[C@H](CCCCN)NC(=O)[C@H](Cc2c[nH]c3ccccc23)NC(=O)[C@H](Cc2ccc(O)cc2)NC(=O)[C@H](C)N(C)C(=O)[C@H](Cc2ccccc2)NC1=O |  |  |  |  |  | 25.1 µM (inconclusive) | 
O=C(CCN1CCN(CC(=O)Nc2ccccc2Cl)CC1)Nc1ccccc1F |  |  |  |  |  | 10 µM (inconclusive) | AC50 (Cytochrome P450 3A4): 20 µM (inconclusive)
N#Cc1cccc(-c2nc(NCc3cccnc3)c3ccccc3n2)c1 |  |  |  |  |  | 1.58 µM (inconclusive) | 
O=C(c1cc(C(F)(F)F)cc(C(F)(F)F)c1)N1CCC2(CCCN(Cc3ccncc3)C2)CC1 |  |  |  |  |  | 7.94 µM (inconclusive) | AC50 (Cytochrome P450 2C19): 25.1 µM (inconclusive); AC50 (Cytochrome P450 3A4): 10 µM (inconclusive)
Cc1ccc2nc(-c3ccc(S(=O)(=O)N4CCCCC4)cc3)cn2c1 | > 120 µM (not active) | 24.4 µM (active) |  |  |  |  | EC50 (H4): 14.9 µM (active)
COC(=O)C1=C(NC(=O)c2cccs2)CCS1 |  |  |  |  |  | 39.8 µM (inconclusive) | AC50 (Cytochrome P450 2C19): 17.8 µM (inconclusive)
COC(=O)c1ccc(COC(=O)c2nn(C)c(=O)c3ccccc23)cc1 | 15.6 µM (active) | 14.1 µM (active) |  |  |  |  | EC50 (H4): > 120 µM (not active)
O=C(OCc1nc2ccccc2[nH]1)C12CC3CC(CC(C3)C1)C2 |  |  |  |  |  | 14.1 µM (inconclusive) | AC50 (Cytochrome P450 3A4): 1.12 µM (inconclusive)
C/C(=N\NC(N)=O)c1ccc(Cl)cc1 |  |  |  |  |  | 2 µM (inconclusive) | AC50 (Cytochrome P450 2C19): 31.6 µM (inconclusive)
CC1CC1C(=O)OCC(=O)NC(=O)NC12CC3CC(CC(C3)C1)C2 (configuration not stated) | 13.1 µM (active) | 21.1 µM (active) |  |  |  |  | EC50 (H4): 15.4 µM (active)
Cc1ccccc1Cn1nnc2c1C(=O)c1ccccc1C2=O |  |  | > 120 µM (not active) | > 120 µM (not active) | > 60 µM (not active) |  | 
Cc1cc(C)cc(NS(=O)(=O)c2ccc3ncc(C(=O)N4CCc5ccccc54)c(O)c3c2)c1 |  |  |  |  |  |  | EC50 [7]: > 53 µM (inactive)
